In patent publication US8871767B2, “2-arylimidazo[1,2-B]pyridazine, 2-phenylimidazo[1,2-A]pyridine, and 2-phenylimidazo[1,2-A]pyrazine derivatives” (Hengrui (USA) Ltd., priority 2010, dated 2014):
Like-named read-outs stand apart in the source and are kept apart here.

Columns and labels:
[1] = tested on: Hedgehog pathway activation on 10T1/2/Smo#3 cells (C3H10T1/2 cells transfected with human Smoothened receptor); assay: Hedgehog pathway activation on 10T1/2/Smo#3 cells measured by ALP activity; assay type: cell-based; conditions: Mus musculus, C3H 10T1/2, 10T1/2/Smo#3 cells
Procedure, shortened: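 Inhibition of alkaline phosphatase induction, read fluorometrically from 4-methylumbelliferyl phosphate conversion, gave IC50 values; CellTiter-Blue tracked viability in parallel. Cells were the human Smo-transfected 10T1/2/Smo#3 pool, stimulated by 10-20% hShh conditioned medium or the Smo agonist SAG (500 nM).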

[2] = tested on: Hedgehog pathway activation (GLi-luciferase reporter) in Shh Light II reporter cells; assay: Hedgehog pathway activation on Shh Light II reporter cells measured by luciferase activity; assay type: cell-based; conditions: Mus musculus, Shh Light II
Procedure, shortened: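 Shh Light II reporter cells carrying a hedgehog-responsive GLi-luciferase reporter were stimulated either with 500 nM SAG, a direct Smoothened agonist, or with conditioned media containing human Sonic Hedgehog (hShh). Test compounds were evaluated for blocking this pathway activation, quantified by luciferase activity. Cell viability was monitored in parallel with the Celltiter-Blue® assay.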

[3] = measured by ALP activity, read-out: ALP (IC50, inhibition of Hedgehog pathway activation)
[4] = hShh activation, read-out: Shh (IC50, inhibition of Hedgehog pathway activation)
[5] = hShh activation, ALP activity, read-out: 10T1/2/Smo#3 ALP activity (hShh Activation)
[6] = SAG activation (500 nM SAG), read-out: Shh Light II luciferase activity (SAG activation)
[7] = hShh activation, read-out: Shh Light II luciferase activity (hShh activation)

Compound | IC50 [1, 3] [nM] | IC50 [2, 4] [nM] | IC50 [1, 5] [nM] | IC50 [2, 6] [nM] | IC50 [2, 7] [nM]
CCOC(=O)CCCCOc1ccc(C(F)(F)F)c(-c2ccc3nc(-c4ccc(C)c(NC(=O)C(C)(C)C)c4)cn3n2)c1 [Example 433, ethyl 5-(3-(2-(4-methyl-3-pivalamidophenyl)imidazo[1,2-b]pyridazin-6-yl)-4-(trifluoromethyl)phenoxy)pentanoate] | 736 | 193 | – | – | –
Cc1c(-c2ccccc2F)nn2cc(-c3ccc(C(F)(F)F)c(NC(=O)C(C)(C)C)c3)nc2c1C [Example 200, N-(5-(6-(2-fluorophenyl)-7,8-dimethylimidazo[1,2-b]pyridazin-2-yl)-2-(trifluoromethyl)phenyl)pivalamide] | 284 | 281 | – | – | –
CC1(C(=O)Nc2cc(-c3cn4nc(-c5cccnc5C(F)(F)F)ccc4n3)ccc2Cl)CC1 [Example 653, N-(2-chloro-5-(6-(2-(trifluoromethyl)pyridin-3-yl)imidazo[1,2-b]pyridazin-2-yl)phenyl)-1-methylcyclopropanecarboxamide] | 80 | 10 | – | – | –
Cc1ccc(-c2cn3nc(NC(=O)c4cccc(C=CC(=O)NO)c4)ccc3n2)cc1NC(=O)C(C)(C)C [compound 605] | 62 | 30 | < 300 | < 300 | < 300
Cc1ccc(-c2cn3nc(NS(=O)(=O)c4cccc(C=CC(=O)NO)c4)ccc3n2)cc1NC(=O)C(C)(C)C [compound 606] | 484 | 66 | – | – | –
Cc1c(-c2ccccc2)nc2ccc(N3CCN(C(=O)CC(C)(C)C)CC3)nn12 [Example 157, 3,3-dimethyl-1-(4-(3-methyl-2-phenylimidazo[1,2-b]pyridazin-6-yl)piperazin-1-yl)butan-1-one] | > 10000 | 1950 | – | – | –
CCOc1ccc2nc(-c3ccc(C(F)(F)F)c(NC(=O)Cc4ccccc4)c3)cn2n1 [Example 194, N-(5-(6-ethoxyimidazo[1,2-b]pyridazin-2-yl)-2-(trifluoromethyl)phenyl)-2-phenylacetamide] | > 10000 | 1750 | – | – | –
CC(C)(C)C(=O)Nc1cc(-c2cn3nc(-c4ccccc4F)ccc3n2)ccc1C(F)(F)F [Example 171, N-(5-(6-(2-fluorophenyl)imidazo[1,2-b]pyridazin-2-yl)-2-(trifluoromethyl)phenyl)pivalamide] | 221 | 41 | – | – | –
CC(CC(=O)Nc1cc(-c2cn3nc(-c4cccnc4C(F)(F)F)ccc3n2)ccc1Cl)C(F)(F)F (stereo not drawn) [Example 666, N-(2-chloro-5-(6-(2-(trifluoromethyl)pyridin-3-yl)imidazo[1,2-b]pyridazin-2-yl)phenyl)-4,4,4-trifluoro-3-methylbutanamide] | 527 | 64 | – | – | –
CCOc1ccc2nc(-c3ccc(C(F)(F)F)c(NC(=O)CC(C)(C)C)c3)cn2n1 [Example 187, N-(5-(6-ethoxyimidazo[1,2-b]pyridazin-2-yl)-2-(trifluoromethyl)phenyl)-3,3-dimethylbutanamide] | > 10000 | > 10000 | – | – | –
CCOc1ccc2nc(-c3ccc(C(F)(F)F)c(NC(=O)C4CCCCC4)c3)cn2n1 [Example 190, N-(5-(6-ethoxyimidazo[1,2-b]pyridazin-2-yl)-2-(trifluoromethyl)phenyl)cyclohexanecarboxamide] | 5260 | > 10000 | – | – | –
Cc1ccc(-c2cn3nc(-c4ccc(NC(=O)CCCCCCC(=O)NOC5CCCCO5)cc4)ccc3n2)cc1NC(=O)C(C)(C)C (stereo not drawn) [compound 562] | 756 | 376 | – | – | –
CCOc1ccc2nc(-c3ccc(C(F)(F)F)c(S(=O)(=O)NCc4ccccc4)c3)cn2n1 [Example 215, N-benzyl-5-(6-ethoxyimidazo[1,2-b]pyridazin-2-yl)-2-(trifluoromethyl)benzenesulfonamide] | 3120 | > 10000 | – | – | –
CCOC(=O)CCCCCOc1ccc(C(F)(F)F)c(-c2ccc3nc(-c4ccc(C)c(NC(=O)C(C)(C)C)c4)cn3n2)c1 [Example 424, ethyl 6-(3-(2-(4-methyl-3-pivalamidophenyl)imidazo[1,2-b]pyridazin-6-yl)-4-(trifluoromethyl)phenoxy)hexanoate] | 4100 | 7460 | – | – | –
CC(=O)NC1CCN(c2ccc3nc(-c4ccc(C)c(NC(=O)C(C)(C)C)c4)c(C)n3n2)C1 (stereo not drawn) [Example 363, N-(5-(6-(3-acetamidopyrrolidin-1-yl)-3-methylimidazo[1,2-b]pyridazin-2-yl)-2-methylphenyl)pivalamide] | 1240 | 612 | 300 to 3000 | 300 to 3000 | 300 to 3000
CCCOc1ccc(F)c(-c2ccc3nc(-c4ccc(C(F)(F)F)c(NC(=O)C(C)(C)C)c4)cn3n2)c1 [Example 253, N-(5-(6-(2-fluoro-5-propoxyphenyl)imidazo[1,2-b]pyridazin-2-yl)-2-(trifluoromethyl)phenyl)pivalamide] | 448 | 899 | – | – | –
CC(C)(C)C(=O)Nc1cc(-c2cn3nc(N4CCCCC4)ccc3n2)ccc1C(F)(F)F [Example 288, N-(5-(6-(piperidin-1-yl)imidazo[1,2-b]pyridazin-2-yl)-2-(trifluoromethyl)phenyl)pivalamide] | 258 | 345 | – | – | –
Cc1ccc(-c2cn3nc(-c4cccc(C=CC(=O)O)c4)ccc3n2)cc1NC(=O)C(C)(C)C [compound 554] | 1190 | 316 | 300 to 3000 | 3000 to 30000 | < 300
CC(C)(C)C(=O)Nc1cc(-c2cn3nc(OC4CCOCC4)ccc3n2)ccc1C(F)(F)F [Example 310, N-(5-(6-(tetrahydro-2H-pyran-4-yloxy)imidazo[1,2-b]pyridazin-2-yl)-2-(trifluoromethyl)phenyl)pivalamide] | 1780 | 721 | – | – | –
CCc1ccc(-c2cn3nc(-c4cccnc4C(F)(F)F)ccc3n2)cc1NC(=O)C(C)(C)C(F)(F)F [Example 690, N-(2-ethyl-5-(6-(2-(trifluoromethyl)pyridin-3-yl)imidazo[1,2-b]pyridazin-2-yl)phenyl)-3,3,3-trifluoro-2,2-dimethylpropanamide] | 225 | 59 | – | – | –
CC(C)(C)C(=O)Nc1cc(-c2cn3nc(-c4ccccc4C(F)(F)F)ccc3n2)ccc1C#N [Example 225, N-(2-cyano-5-(6-(2-(trifluoromethyl)phenyl)imidazo[1,2-b]pyridazin-2-yl)phenyl)pivalamide] | 65 | 48 | < 300 | 3000 to 30000 | < 300
CCc1ccc(-c2cn3nc(-c4cccnc4C(F)(F)F)ccc3n2)cc1NC(=O)C1(C)COC1 [Example 696, N-(2-ethyl-5-(6-(2-(trifluoromethyl)pyridin-3-yl)imidazo[1,2-b]pyridazin-2-yl)phenyl)-3-methyloxetane-3-carboxamide] | 229 | 254 | – | – | –
CC1CCCCN1c1ccc2nc(-c3ccc(C(F)(F)F)c(NC(=O)C(C)(C)C)c3)cn2n1 (stereo not drawn) [Example 294, N-(5-(6-(2-methylpiperidin-1-yl)imidazo[1,2-b]pyridazin-2-yl)-2-(trifluoromethyl)phenyl)pivalamide] | 254 | 256 | – | – | –
CCOC(=O)COc1ccc(C(F)(F)F)c(-c2ccc3nc(-c4ccc(C)c(NC(=O)C(C)(C)C)c4)cn3n2)c1 [Example 477, ethyl 2-(3-(2-(4-methyl-3-pivalamidophenyl)imidazo[1,2-b]pyridazin-6-yl)-4-(trifluoromethyl)phenoxy)acetate] | 521 | 247 | – | – | –
